According to ChEMBL document CHEMBL1121678, “Antitumor agents. 44. Bis(helenalinyl) esters and related derivatives as novel potent antileukemic agents” (1981):

Experiments:
Assay type in all cases: functional
Mus musculus [1] = assay: Antileukemic activity of compound against the P-388 lymphocytic leukemic BDF1 male mice at 15(mg/kg)/day, administered intraperitoneally; 13.2/9.66 (Treated/control)
Mus musculus [2] = assay: Antileukemic activity of compound against the P-388 lymphocytic leukemic BDF1 male mice at 15(mg/kg)/day, administered intraperitoneally (Treated/control)
Mus musculus [3] = assay: Antileukemic activity of compound against the P-388 lymphocytic leukemic BDF1 male mice at 8(mg/kg)/day, administered intraperitoneally; 11.8/9.66 (Treated/control)
Mus musculus [4] = assay: In vivo antileukemic activity against P-388 lymphocytic leukemia in BDF1 male mice at 8(mg/kg)/day intraperitoneal dose expressed as T/C
Mus musculus [5] = assay: In vivo antileukemic activity against P-388 lymphocytic leukemia in BDF1 male mice at 60 mg/kg/day intraperitoneal dose expressed as T/C
Mus musculus [6] = assay: In vivo antileukemic activity against P-388 lymphocytic leukemia in BDF1 male mice at 30(mg/kg)/day intraperitoneal dose expressed as T/C
Mus musculus [7] = assay: In vivo antileukemic activity against P-388 lymphocytic leukemia in BDF1 male mice at 15(mg/kg)/day intraperitoneal dose expressed as T/C
Mus musculus [8] = assay: Antileukemic activity of compound against the P-388 lymphocytic leukemic BDF1 male mice at 8(mg/kg)/day, administered intraperitoneally; 14.0/9.66 (Treated/control)
Mus musculus [9] = assay: Antileukemic activity of compound against the P-388 lymphocytic leukemic BDF1 male mice at 15(mg/kg)/day, administered intraperitoneally; 18.7/9.66 (Treated/control)
Mus musculus [10] = assay: Antileukemic activity of compound against the P-388 lymphocytic leukemic BDF1 male mice at 60 mg/kg/day, administered intraperitoneally; 12.7/9.66 (Treated/control); details: route intraperitoneal
Mus musculus [11] = assay: Antileukemic activity of compound against the P-388 lymphocytic leukemic BDF1 male mice at 30(mg/kg)/day, administered intraperitoneally; 15.4/9.66 (Treated/control)
Mus musculus [12] = assay: Antileukemic activity of compound against the P-388 lymphocytic leukemic BDF1 male mice at 60 mg/kg/day, administered intraperitoneally; 5.8/9.66 (Treated/control); details: route intraperitoneal
Mus musculus [13] = assay: Antileukemic activity of compound against the P-388 lymphocytic leukemic BDF1 male mice at 8(mg/kg)/day, administered intraperitoneally; 13.8/9.66 (Treated/control)
Mus musculus [14] = assay: Antileukemic activity of compound against the P-388 lymphocytic leukemic BDF1 male mice at 3(mg/kg)/day, administered intraperitoneally; 13.8/9.66 (Treated/control)
Mus musculus [15] = assay: In vivo antileukemic activity against P-388 lymphocytic leukemia in BDF1 male mice at 3(mg/kg)/day intraperitoneal dose expressed as T/C
Mus musculus [16] = assay: Antileukemic activity of compound against the P-388 lymphocytic leukemic BDF1 male mice at 15(mg/kg)/day, administered intraperitoneally; 25.2/9.66 (Treated/control)
Mus musculus [17] = assay: Antileukemic activity of compound against the P-388 lymphocytic leukemic BDF1 male mice at 30(mg/kg)/day, administered intraperitoneally; 16.2/9.66 (Treated/control)
Mus musculus [18] = assay: Antileukemic activity of compound against the P-388 lymphocytic leukemic BDF1 male mice at 25(mg/kg)/day, administered intraperitoneally; 10.6/9.66 (Treated/control)
Mus musculus [19] = assay: Antileukemic activity of compound against the P-388 lymphocytic leukemic BDF1 male mice at 30(mg/kg)/day, administered intraperitoneally; 7/9.66 (Treated/control)
Mus musculus [20] = assay: Antileukemic activity of compound against the P-388 lymphocytic leukemic BDF1 male mice at 8(mg/kg)/day, administered intraperitoneally; 18.8/9.66 (Treated/control)
Mus musculus [21] = assay: Antileukemic activity of compound against the P-388 lymphocytic leukemic BDF1 male mice at 4(mg/kg)/day, administered intraperitoneally; 16.5/9.66 (Treated/control)
Mus musculus [22] = assay: Antileukemic activity of compound against the P-388 lymphocytic leukemic BDF1 male mice at 15(mg/kg)/day, administered intraperitoneally; 9/9.66 (Treated/control)
Mus musculus [23] = assay: Antileukemic activity of compound against the P-388 lymphocytic leukemic BDF1 male mice at 2(mg/kg)/day, administered intraperitoneally; 11.5/9.66 (Treated/control)
Mus musculus [24] = assay: Antileukemic activity of compound against the P-388 lymphocytic leukemic BDF1 male mice at 60 mg/kg/day, administered intraperitoneally; 4.7/9.66 (Treated/control); details: route intraperitoneal
Mus musculus [25] = assay: In vivo antileukemic activity against P-388 lymphocytic leukemia in BDF1 male mice at 4(mg/kg)/day intraperitoneal dose expressed as T/C
Mus musculus [26] = assay: In vivo antileukemic activity against P-388 lymphocytic leukemia in BDF1 male mice at 2(mg/kg)/day intraperitoneal dose expressed as T/C
Mus musculus [27] = assay: Antileukemic activity of compound against the P-388 lymphocytic leukemic BDF1 male mice at 0.6(mg/kg)/day, administered intraperitoneally; 11.0/9.66 (Treated/control)
Mus musculus [28] = assay: In vivo antileukemic activity against P-388 lymphocytic leukemia in BDF1 male mice at 0.6(mg/kg)/day intraperitoneal dose expressed as T/C

## C=C1C(=O)O[C@@H]2C[C@@H](C)[C@@H]3CCC(=O)[C@@]3(C)[C@@H](OC(=O)CC(=O)O[C@H]3[C@@H]4C(=C)C(=O)O[C@@H]4C[C@@H](C)[C@@H]4CCC(=O)[C@]43C)[C@H]12
Mus musculus [1]
  Average survival (days): 13.2
Mus musculus [2]
  T/C: 137%
Mus musculus [3]
  Average survival (days): 11.8
Mus musculus [4]
  T/C: 122%

## O=C(O)CCC(=O)O [SUCCINIC ACID]
Mus musculus [5]
  T/C: 111%

## C[C@@H]1C[C@H]2OC(=O)[C@@H](C)[C@H]2[C@H](OC(=O)CCC(=O)O[C@H]2[C@@H]3[C@H](C)C(=O)O[C@@H]3C[C@@H](C)[C@@H]3C=CC(=O)[C@]32C)[C@]2(C)C(=O)C=C[C@@H]12
Mus musculus [6]
  T/C: 159%
Mus musculus [7]
  T/C: 194%
Mus musculus [8]
  Average survival (days): 14
Mus musculus [5]
  T/C: 131%
Mus musculus [4]
  T/C: 145%
Mus musculus [9]
  Average survival (days): 18.7
Mus musculus [10]
  Average survival (days): 12.7
Mus musculus [11]
  Average survival (days): 15.4

## C=C1C(=O)O[C@@H]2C[C@@H](C)[C@@H]3C=CC(=O)[C@@]3(C)[C@@H](OC(=O)CC(=O)O[C@H]3[C@@H]4C(=C)C(=O)O[C@@H]4C[C@@H](C)[C@@H]4C=CC(=O)[C@]43C)[C@H]12
Mus musculus [12]
  Average survival (days): 5.8
Mus musculus [6]
  T/C: 168%
Mus musculus [13]
  Average survival (days): 13.8
Mus musculus [7]
  T/C: 261%
Mus musculus [5]
  T/C: 60%
Mus musculus [4]
  T/C: 143%
Mus musculus [14]
  Average survival (days): 13.8
Mus musculus [15]
  T/C: 143%
Mus musculus [16]
  Average survival (days): 25.2
Mus musculus [17]
  Average survival (days): 16.2

## C=C1C(=O)O[C@@H]2C[C@@H](C)[C@@H]3CCC(=O)[C@@]3(C)[C@@H](O)[C@H]12
Mus musculus [5]
  T/C: 110%
Mus musculus [18]
  Average survival (days): 10.6

## C=C1C(=O)O[C@@H]2C[C@@H](C)[C@@H]3C=CC(=O)[C@@]3(C)[C@@H](OC(=O)CCCC(=O)O[C@H]3[C@@H]4C(=C)C(=O)O[C@@H]4C[C@@H](C)[C@@H]4C=CC(=O)[C@]43C)[C@H]12
Mus musculus [19]
  Average survival (days): 7
Mus musculus [6]
  T/C: 72%
Mus musculus [20]
  Average survival (days): 18.8
Mus musculus [21]
  Average survival (days): 16.5
Mus musculus [7]
  T/C: 93%
Mus musculus [5]
  T/C: 48%
Mus musculus [22]
  Average survival (days): 9
Mus musculus [23]
  Average survival (days): 11.2
Mus musculus [4]
  T/C: 195%
Mus musculus [24]
  Average survival (days): 4.7
Mus musculus [25]
  T/C: 171%
Mus musculus [26]
  T/C: 116%

## O=C(O)CC(=O)O [MALONIC ACID]
Mus musculus [27]
  Average survival (days): 11
Mus musculus [28]
  T/C: 114%
